The subject of one data set is MDA‐MB‐231. Description: MDA‐MB‐231 breast cancer xenograft in NMRI nu/nu mice. The format is in vivo, mouse. The conditions noted are these: for Tumor growth inhibition (%): MDA-MB-231, end of study day 40; for Tumor growth versus vehicle control: MDA‐MB‐231 model, P < 0.05 for all groups. Here is the method: Mouse experiments were approved by the relevant regulatory agency of the federal state of Berlin (Landesamt für Gesundheit und Soziales Berlin, approval number G0221/03). Mice were maintained in individually ventilated cages in groups of four mice per cage. They received autoclaved food and bedding (Ssniff, Soest, Germany) and acidified (pH 4.0) tap water ad libitum. The animal facility was equipped with an automatic 12 h light/dark regulation, temperature regulation at 22 ± 2°C, and relative humidity of 50 ± 10%. Female NMRI nu/nu mice (purchased from Charles River, Sulzfeld, Germany) were inoculated with 1 × 10^7 MDA‐MB‐231 or HT‐29 cells, which were allowed to grow subcutaneously to a palpable size of approximately 60–100 mm^3. […] All administrations were performed in the morning, without anesthesia. Tumor volume was determined twice per week using caliper measurements, and the volume was calculated using the formula (D × d^2)/2, with d defined as the minor axis and D as the major axis of the measurement. Tumor growth inhibition was calculated as relative tumor volume in relation to the first treatment day.
Changes in tumor volume were statistically evaluated by two‐way repeated‐measures analysis of variance, followed by Bonferroni correction, using GraphPad Prism 5 (San Diego, CA), and P < 0.05 was regarded as significant. Additionally, body weight of all mice was determined twice weekly, and the health status of the animals, including behavioral changes, was recorded daily.

The target of a further data set is T1, TAOK3 (Homo sapiens, UniProt Q9H2K8).
T1 construct: purchased DiscoveRx
T1 sequence (Q9H2K8 1-898): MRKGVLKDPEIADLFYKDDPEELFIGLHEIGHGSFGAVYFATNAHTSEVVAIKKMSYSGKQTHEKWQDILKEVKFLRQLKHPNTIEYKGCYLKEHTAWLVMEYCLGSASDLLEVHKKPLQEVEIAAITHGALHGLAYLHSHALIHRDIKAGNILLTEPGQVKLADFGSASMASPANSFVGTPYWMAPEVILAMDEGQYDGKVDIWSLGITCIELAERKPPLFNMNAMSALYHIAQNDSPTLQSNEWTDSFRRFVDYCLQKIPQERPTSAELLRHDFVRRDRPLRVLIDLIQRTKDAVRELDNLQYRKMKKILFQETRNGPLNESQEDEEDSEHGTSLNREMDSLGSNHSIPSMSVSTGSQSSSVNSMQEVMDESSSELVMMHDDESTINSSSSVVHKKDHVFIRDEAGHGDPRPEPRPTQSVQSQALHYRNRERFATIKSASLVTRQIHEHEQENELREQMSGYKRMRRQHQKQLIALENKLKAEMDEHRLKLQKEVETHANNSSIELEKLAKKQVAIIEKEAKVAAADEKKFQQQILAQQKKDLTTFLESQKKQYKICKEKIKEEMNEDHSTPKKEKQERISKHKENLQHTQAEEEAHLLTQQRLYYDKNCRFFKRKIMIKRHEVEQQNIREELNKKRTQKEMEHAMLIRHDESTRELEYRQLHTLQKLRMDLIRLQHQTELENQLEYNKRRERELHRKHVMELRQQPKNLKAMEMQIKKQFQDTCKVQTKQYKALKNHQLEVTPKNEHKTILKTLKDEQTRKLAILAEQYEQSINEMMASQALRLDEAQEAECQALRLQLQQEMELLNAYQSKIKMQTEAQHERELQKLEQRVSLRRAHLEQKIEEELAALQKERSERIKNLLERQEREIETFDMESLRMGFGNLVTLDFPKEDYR
Description: KINOMEscan active-site competitive binding assay. Particulars: slash = duplicate values.

The next data set deals with T2, TIE-1 (Homo sapiens, UniProt P35590).
T2 construct: purchased DiscoveRx
Description: KINOMEscan active-site competitive binding assay. Particulars: slash = two separate measurements.

Data set [1] can be described thus: Calculated free drug concentration in human plasma. It is filed as in vivo.
Another data set concerns the target T3, SLK (Homo sapiens, UniProt Q9H2G2).
T3 construct: purchased DiscoveRx
Briefly: KINOMEscan active-site competitive binding assay. The conditions noted are these: slash = two separate measurements.

Another data set concerns the target T4, EPHA6 (Homo sapiens, UniProt Q9UF33).
T4 construct: purchased DiscoveRx (KINOMEscan service)
T4 sequence (Q9UF33 23-1036): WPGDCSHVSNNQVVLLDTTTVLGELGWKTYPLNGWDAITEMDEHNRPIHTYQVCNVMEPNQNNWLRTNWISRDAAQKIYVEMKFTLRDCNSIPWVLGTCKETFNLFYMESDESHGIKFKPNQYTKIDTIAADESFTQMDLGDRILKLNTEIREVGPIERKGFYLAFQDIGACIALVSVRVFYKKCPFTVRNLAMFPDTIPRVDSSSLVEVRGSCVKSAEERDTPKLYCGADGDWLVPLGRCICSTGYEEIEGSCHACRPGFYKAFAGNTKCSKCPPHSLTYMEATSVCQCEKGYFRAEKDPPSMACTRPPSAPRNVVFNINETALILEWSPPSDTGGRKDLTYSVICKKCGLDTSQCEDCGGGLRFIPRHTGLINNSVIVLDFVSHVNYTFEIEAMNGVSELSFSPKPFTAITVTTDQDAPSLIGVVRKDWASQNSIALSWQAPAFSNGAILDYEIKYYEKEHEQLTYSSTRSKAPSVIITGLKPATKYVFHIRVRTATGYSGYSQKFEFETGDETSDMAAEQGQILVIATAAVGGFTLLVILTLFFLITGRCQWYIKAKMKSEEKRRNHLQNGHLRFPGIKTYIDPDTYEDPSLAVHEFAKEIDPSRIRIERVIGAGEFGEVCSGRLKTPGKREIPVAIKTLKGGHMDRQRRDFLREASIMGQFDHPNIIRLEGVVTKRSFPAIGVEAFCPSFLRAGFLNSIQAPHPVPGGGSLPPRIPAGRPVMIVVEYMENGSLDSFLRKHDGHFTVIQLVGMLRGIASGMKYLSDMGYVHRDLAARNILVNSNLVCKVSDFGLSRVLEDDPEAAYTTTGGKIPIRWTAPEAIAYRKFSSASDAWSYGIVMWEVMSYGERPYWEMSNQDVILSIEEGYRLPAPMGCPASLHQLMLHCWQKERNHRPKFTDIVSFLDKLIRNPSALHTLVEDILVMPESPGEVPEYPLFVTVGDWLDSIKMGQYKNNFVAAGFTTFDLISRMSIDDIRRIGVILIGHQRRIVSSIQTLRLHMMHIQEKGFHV
Briefly: KINOMEscan active-site competitive binding assay. Particulars: slash = two separate measurements.

Another data set addresses T5, CDK11 (Homo sapiens, UniProt Q9BWU1).
T5 construct: purchased DiscoveRx (KINOMEscan service)
Description: KINOMEscan active-site competitive binding assay. The conditions noted are these: slash = two separate measurements.

A further data set concerns the target T6, FRK (Homo sapiens, UniProt P42685).
T6 construct: purchased DiscoveRx (KINOMEscan service)
Briefly: KINOMEscan active-site competitive binding assay. Particulars: slash = two separate measurements.

The target in a further data set is T7, p38-beta (Homo sapiens, UniProt Q15759).
T7 construct: purchased DiscoveRx (KINOMEscan service)
Briefly: KINOMEscan active-site competitive binding assay. The conditions noted are these: slash = two separate measurements.

“And” between values parts separate entries of the source, which are not always exact repeats. Equal entries are not always repeated.

T5 sequence (Q9BWU1 whole entry): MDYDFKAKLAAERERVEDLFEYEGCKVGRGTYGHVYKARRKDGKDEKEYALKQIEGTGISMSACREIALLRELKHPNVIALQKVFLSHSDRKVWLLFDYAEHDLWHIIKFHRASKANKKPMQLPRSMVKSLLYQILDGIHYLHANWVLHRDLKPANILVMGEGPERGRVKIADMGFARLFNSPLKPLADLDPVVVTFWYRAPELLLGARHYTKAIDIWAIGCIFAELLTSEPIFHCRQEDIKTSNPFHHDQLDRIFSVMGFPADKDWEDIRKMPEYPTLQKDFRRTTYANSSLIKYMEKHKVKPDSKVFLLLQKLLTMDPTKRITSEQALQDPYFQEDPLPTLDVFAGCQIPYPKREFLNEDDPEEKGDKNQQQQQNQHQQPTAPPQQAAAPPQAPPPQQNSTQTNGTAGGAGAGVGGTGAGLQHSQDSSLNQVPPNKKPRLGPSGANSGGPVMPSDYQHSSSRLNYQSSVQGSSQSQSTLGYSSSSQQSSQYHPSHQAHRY
T3 sequence (Q9H2G2 whole entry): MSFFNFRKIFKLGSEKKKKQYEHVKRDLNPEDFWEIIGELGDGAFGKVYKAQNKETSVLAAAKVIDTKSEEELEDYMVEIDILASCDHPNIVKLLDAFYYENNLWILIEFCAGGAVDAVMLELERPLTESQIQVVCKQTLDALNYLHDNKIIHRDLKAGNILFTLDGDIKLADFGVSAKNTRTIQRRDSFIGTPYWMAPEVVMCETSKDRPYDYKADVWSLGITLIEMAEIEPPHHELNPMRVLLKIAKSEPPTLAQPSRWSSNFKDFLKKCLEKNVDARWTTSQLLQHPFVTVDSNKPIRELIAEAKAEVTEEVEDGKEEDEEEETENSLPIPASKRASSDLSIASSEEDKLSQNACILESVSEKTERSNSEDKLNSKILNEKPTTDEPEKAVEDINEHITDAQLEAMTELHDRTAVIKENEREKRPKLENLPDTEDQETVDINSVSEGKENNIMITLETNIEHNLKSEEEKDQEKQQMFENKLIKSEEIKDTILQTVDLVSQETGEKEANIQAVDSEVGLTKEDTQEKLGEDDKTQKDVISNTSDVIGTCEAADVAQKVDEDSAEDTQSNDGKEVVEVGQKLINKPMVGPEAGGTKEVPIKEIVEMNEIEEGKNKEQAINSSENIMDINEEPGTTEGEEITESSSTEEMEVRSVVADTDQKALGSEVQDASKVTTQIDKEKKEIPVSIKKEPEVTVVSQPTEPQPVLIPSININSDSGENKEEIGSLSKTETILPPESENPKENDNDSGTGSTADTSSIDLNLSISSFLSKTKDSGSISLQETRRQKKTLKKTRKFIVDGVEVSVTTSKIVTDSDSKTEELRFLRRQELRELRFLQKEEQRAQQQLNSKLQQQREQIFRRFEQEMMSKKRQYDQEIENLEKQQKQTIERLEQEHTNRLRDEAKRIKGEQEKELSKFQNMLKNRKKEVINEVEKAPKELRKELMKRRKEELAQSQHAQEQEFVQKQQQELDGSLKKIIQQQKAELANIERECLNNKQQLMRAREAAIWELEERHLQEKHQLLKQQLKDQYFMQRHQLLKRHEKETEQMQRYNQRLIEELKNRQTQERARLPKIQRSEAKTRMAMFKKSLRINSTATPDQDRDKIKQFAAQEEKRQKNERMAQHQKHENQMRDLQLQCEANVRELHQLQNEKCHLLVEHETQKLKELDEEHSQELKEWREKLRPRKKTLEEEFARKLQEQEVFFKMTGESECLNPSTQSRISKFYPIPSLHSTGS
T2 sequence (P35590 22-1138): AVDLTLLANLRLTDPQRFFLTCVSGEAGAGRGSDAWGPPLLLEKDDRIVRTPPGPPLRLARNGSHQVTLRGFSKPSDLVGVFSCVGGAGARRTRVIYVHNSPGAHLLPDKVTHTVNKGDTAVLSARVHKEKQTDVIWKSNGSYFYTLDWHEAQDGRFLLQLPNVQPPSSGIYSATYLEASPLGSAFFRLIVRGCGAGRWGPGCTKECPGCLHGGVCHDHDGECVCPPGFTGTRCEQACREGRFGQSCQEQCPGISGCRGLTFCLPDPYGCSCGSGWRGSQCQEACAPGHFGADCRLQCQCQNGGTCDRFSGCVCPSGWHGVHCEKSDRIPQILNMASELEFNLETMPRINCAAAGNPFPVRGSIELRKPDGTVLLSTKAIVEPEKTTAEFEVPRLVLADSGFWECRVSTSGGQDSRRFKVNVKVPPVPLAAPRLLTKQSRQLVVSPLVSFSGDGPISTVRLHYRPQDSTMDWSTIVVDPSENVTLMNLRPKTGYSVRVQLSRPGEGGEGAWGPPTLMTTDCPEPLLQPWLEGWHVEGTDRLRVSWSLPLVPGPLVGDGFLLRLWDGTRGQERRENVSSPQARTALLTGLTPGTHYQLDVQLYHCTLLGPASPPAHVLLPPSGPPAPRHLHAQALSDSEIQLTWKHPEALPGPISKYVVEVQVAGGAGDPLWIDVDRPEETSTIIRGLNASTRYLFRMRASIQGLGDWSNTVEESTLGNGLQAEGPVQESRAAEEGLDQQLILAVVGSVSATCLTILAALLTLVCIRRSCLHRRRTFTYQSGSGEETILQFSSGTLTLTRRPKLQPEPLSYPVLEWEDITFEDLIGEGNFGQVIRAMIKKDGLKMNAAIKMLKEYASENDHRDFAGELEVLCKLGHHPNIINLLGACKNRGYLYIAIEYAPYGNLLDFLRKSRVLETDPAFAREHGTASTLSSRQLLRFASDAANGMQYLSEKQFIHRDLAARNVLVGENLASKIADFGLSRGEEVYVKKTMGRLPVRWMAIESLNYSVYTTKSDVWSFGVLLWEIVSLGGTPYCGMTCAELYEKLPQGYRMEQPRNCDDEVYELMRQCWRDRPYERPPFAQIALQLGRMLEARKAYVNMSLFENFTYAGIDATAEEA
T6 sequence (P42685 whole entry): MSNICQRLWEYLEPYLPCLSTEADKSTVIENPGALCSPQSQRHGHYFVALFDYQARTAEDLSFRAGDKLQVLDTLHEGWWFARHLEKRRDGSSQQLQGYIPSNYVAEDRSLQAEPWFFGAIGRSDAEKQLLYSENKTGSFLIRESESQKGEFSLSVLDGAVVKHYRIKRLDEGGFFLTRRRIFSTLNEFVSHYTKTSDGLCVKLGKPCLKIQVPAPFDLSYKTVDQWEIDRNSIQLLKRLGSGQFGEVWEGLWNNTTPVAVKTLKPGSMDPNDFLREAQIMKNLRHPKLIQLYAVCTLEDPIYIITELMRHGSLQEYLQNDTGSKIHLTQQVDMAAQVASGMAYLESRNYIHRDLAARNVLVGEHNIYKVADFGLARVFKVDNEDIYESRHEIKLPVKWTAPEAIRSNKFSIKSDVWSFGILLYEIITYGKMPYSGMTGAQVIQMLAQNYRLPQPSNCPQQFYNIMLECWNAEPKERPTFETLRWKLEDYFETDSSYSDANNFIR
T7 sequence (Q15759 whole entry): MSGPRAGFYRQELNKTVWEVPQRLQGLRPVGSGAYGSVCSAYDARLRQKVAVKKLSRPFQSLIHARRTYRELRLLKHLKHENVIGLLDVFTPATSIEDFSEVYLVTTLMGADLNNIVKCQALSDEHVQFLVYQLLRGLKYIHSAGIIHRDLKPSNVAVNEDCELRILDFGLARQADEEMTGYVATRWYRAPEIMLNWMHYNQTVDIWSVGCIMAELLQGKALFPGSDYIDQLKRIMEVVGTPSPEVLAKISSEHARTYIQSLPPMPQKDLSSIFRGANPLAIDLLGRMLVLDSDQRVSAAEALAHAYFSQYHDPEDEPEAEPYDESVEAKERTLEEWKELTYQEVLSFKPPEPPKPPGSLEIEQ

For the compound `CNC(=O)c1cc(Oc2ccc(NC(=O)Nc3ccc(Cl)c(C(F)(F)F)c3)c(F)c2)cc[n+]1[O-]` [M‐2], the “Tumor growth inhibition (%)” value in the data set on MDA‐MB‐231 (3 mg/kg/day oral for 27 days) turned out to be 49%; with MDA‐MB‐231 (10 mg/kg/day oral for 27 days), 70%. For the same compound, the “Tumor growth versus vehicle control” value in the data set on MDA‐MB‐231 is “significantly inhibited tumor growth”. The equilibrium dissociation constant (Kd) (commonly a measure of binding affinity in units of concentration) on TAOK3 is 94 nM and 77 nM; on TIE-1 it was 48 nM; at SLK it was 64 nM; on EPHA6, 210 nM; on CDK11, 33 nM; on FRK it was 42 nM. At p38-beta, this compound came in with a Kd of 8.7 nM. Also, in data set [1], the “Calculated free drug concentration” value is recorded as 13.5 nmol/L.
Regarding `NC(=O)c1cc(Oc2ccc(NC(=O)Nc3ccc(Cl)c(C(F)(F)F)c3)c(F)c2)cc[n+]1[O-]` [M‐5], the “Tumor growth inhibition (%)” value worked out at 60% in the data set with MDA‐MB‐231 (3 mg/kg/day oral for 27 days) and 59% in the data set with MDA‐MB‐231 (10 mg/kg/day oral for 27 days). Further, in the data set on MDA‐MB‐231, the “Tumor growth versus vehicle control” value is “significantly inhibited tumor growth”. Besides, the dissociation constant Kd at TAOK3 turned out to be 450 nM; on TIE-1, 73 nM; at SLK, 100 nM; on EPHA6, 640 nM; at CDK11, 86 nM; on FRK, 24 nM. At p38-beta, this compound gave a dissociation constant (Kd) of 25 nM. The “Calculated free drug concentration” value in data set [1] is 3.4 nmol/L.
On to `CNC(=O)c1cc(Oc2ccc(NC(=O)Nc3ccc(Cl)c(C(F)(F)F)c3)c(F)c2)ccn1` [Regorafenib, reference compound], for which the “Tumor growth inhibition (%)” value with MDA‐MB‐231 (3 mg/kg/day oral for 27 days) was 44%; in the data set on MDA‐MB‐231 (10 mg/kg/day oral for 27 days) it was 72%. In addition, the “Tumor growth versus vehicle control” value with MDA‐MB‐231 is reported as “significantly inhibited tumor growth”. Further, the Kd was 200 nM and 290 nM on TAOK3; 30 nM and 27 nM at TIE-1; 120 nM and 98 nM on SLK; 48 nM and 23 nM at EPHA6; 67 nM and 43 nM at CDK11; 69 nM and 42 nM at FRK. The Kd on p38-beta is 44 nM and 28 nM. The “Calculated free drug concentration” value in [1] is recorded as 42.1 nmol/L.

Values taken from PMC5119973 (Cancer Medicine, 2016).
